Results reported in patent publication US11384371B2, “Hydroxylation of branched aliphatic or aromatic substrates employing the amycolatopsis lurida cytochrome P450” (HYPHA DISCOVERY LIMITED, priority 2016, dated 2022).

How the values were obtained:
P450aluC09 [1] = assay: Whole-cell biocatalysis (hydroxylation) by recombinant E. coli expressing P450aluC09 with redox partners; type: cell-based, Amycolatopsis lurida
Description: The recombinant expression strains E. coli BL21 Star (DE3) pLysS with pQR368bb-aluC09-aluF03 and E. coli BL21 Star (DE3) pLysS with p3C.1-AluC09-AluF03 were cultured in Terrific Broth media as in Example 5 and gene expression was induced by adding IPTG to reach the final concentration of 1 mM. The culture was supplemented with FeSO4 and 5′-aminolevulinic acid as in Example 5.
(§1) After four hours of incubation at 27° C. and 200 rpm, 2.5 mL of induced culture was dosed with 10 μL of either bosentan or diclofenac (25 mg/mL each) in a 24-well block (Enzyscreen). The whole-cell biocatalysis reaction was allowed to further incubate for 24 hours at 30° C. and 300 rpm. The reaction was stopped with an equal amount of acetonitrile and conversion assessed by UPLC-MS analysis in a similar manner to that described in Example 7.

P450aluC09 [2] = assay: Cell-free hydroxylase activity of lyophilised recombinant P450aluC09-ferredoxinaluF03-ferredoxin reductaseSCF15A, conversion by UPLC-MS; type: biochemical, Amycolatopsis lurida; conditions: 16-20 hours; for hydroxylase activity (conversion to hydroxylated product): 0.1 mg/ml substrate
Description: Lyophilised material of recombinant P450aluC09, ferredoxinaluF03 and ferredoxin reductaseSCF15A was made as described in examples 5 and 6 and suspended in water to a final concentration of 2.9 μM of P450aluC09 and 919 UN of ferredoxin reductaseSCF15A. […] 50 mM potassium phosphate pH 7.4, 5 mM MgCl2, 0.1 mg/ml substrate compound such as bosentan (CarboSynth Ltd, UK), buparvaquone (MedChemtronica, Sweden), BIRB796 (Stratech Scientific Limited, UK), diclofenac (Sigma-Aldrich, UK), epothilone B (LC Laboratories, USA) or ritonavir (TCI, UK), tivantinib (MedChemtronica, Sweden), 2.4 μM of P450AluC09, 767 UN of ferredoxin reductaseSCF15A, 5 mM G6P, 1 mM NADP, 2 UN/ml G6PDH in a final volume of 100 μL. After 16-20 hours, reactions were extracted with an equal volume of acetonitrile, centrifuged to remove precipitated proteins and conversion assessed by UPLC-MS analysis.
The method in Example 7 was followed except for the buffer exchange section. Four different buffers were chosen: a) 50 mM Acetate pH 5, 100 mM NaCl, 5 mM MgCl2; b) 50 mM potassium phosphate pH7.5, 5 mM MgCl2; c) 50 mM Tris pH 8, 100 mM NaCl, 5 mM MgCl2; d) 50 mM Piperidine pH11, 100 mM NaCl, 5 mM MgCl2. For each buffer condition 1.5 ml of resuspended lyophilised crude extract was exchanged using Vivaspin 20K cut off by performing 3 cycles of concentration and then dilution of the material with the new buffer. Exchanging in 50 mM potassium phosphate pH7.5, 5 mM MgCl2, the usual buffer for preparing and assessment of the enzyme preparations, provided the control for the robustness of the material during the buffer exchange process. […] Of particular note is the activity of this recombinant enzyme at such elevated pH values e.g., pH value of 11. […] Other advantages of catalysis at higher pH are the ability to directly utilise the product from a prior step resulting in such products, such as chemical synthesis, base-catalysed hydrolysis of a feedstock, or reaction product from another enzyme where increasing pH has been used to stop that reaction

P450aluC09 [3] = assay: Whole-cell biocatalysis (hydroxylation) by recombinant E. coli expressing P450aluC09 with redox partners; type: cell-based, Amycolatopsis lurida; remark: listed apart in the source
[4] = tested on: P450aluC09 fused in-frame with the reductase domain of P450BM3; assay: Whole-cell biocatalysis by E. coli expressing P450aluC09 fused with the reductase domain of P450BM3; type: cell-based, Amycolatopsis lurida / Bacillus megaterium; conditions: pET21a-AluC09_BM3, E. coli BL21 Star (DE3) pLysS
Description: as §1
The P450aluC09 was engineered to fuse in-frame to the reductase domain of P450BM3 from Bacillus megaterium in a similar manner described in Scheps et al. Microb Biotechnol. 2013; 6(6):694-707.
Whole-cell hydroxylating activity of E. coli BL21 Star (DE3) pLysS with either pQR368bb-aluC09-aluF03 or pET21a-AluC09_BM3 plasmid were compared against the substrates bosentan and diclofenac in a similar manner described in Example 10.

[5] = Ampicillin resistant strain (pQR368bb-aluC09-aluF03), E. coli BL21 Star (DE3) pLysS
[6] = High copy number strain (p3C.1-AluC09-AluF03), E. coli BL21 Star (DE3) pLysS, 24 hours 30° C.
[7] = Medium copy number strain (pQR368bb-aluC09-aluF03), E. coli BL21 Star (DE3) pLysS, 24 hours 30° C.
[8] = Native ferredoxinaluF03 (p3C.1-AluC09-AluF03), E. coli BL21 Star (DE3) pLysS
[9] = ferredoxinaluF03 and ferredoxin reductaseSCF15A (pQR368bb-aluC09-aluF03), E. coli BL21 Star (DE3) pLysS, Table 7 comparison
[10] = host E. coli BL21 Star (DE3) pLysS, pQR368bb-aluC09-aluF03
[11] = Ferredoxinfd1 from S. griseus 11796 (p3C-AluC09), E. coli BL21 Star (DE3) pLysS
[12] = Kanamycin resistant strain (pHD02-AluC09-AluF03), E. coli BL21 Star (DE3) pLysS
[13] = host E. coli BL21 (DE3) pLysS, pQR368bb-aluC09-aluF03
[14] = host E. coli BL21 (DE3), pQR368bb-aluC09-aluF03
[15] = host E. coli BL21 Star (DE3), pQR368bb-aluC09-aluF03
[16] = pH values of 7.5 and above (pH 8-11)

Row | SMILES | % yield of parent-derived products (P450aluC09 [1]; [5]) [%] | % yield of parent-derived products (P450aluC09 [1]; [6]) [%] | % yield of parent-derived products (P450aluC09 [1]; [7]) [%] | % yield of parent-derived products (P450aluC09 [1]; [8]) [%] | % yield of parent-derived products (P450aluC09 [1]; [9]) [%] | % yield of parent-derived products (P450aluC09 [1]; [10]) [%] | hydroxylase activity (conversion to hydroxylated product) (P450aluC09 [2]; 10° C.) [%] | hydroxylase activity (conversion to hydroxylated product) (P450aluC09 [2]; 22° C.) [%] | hydroxylase activity (conversion to hydroxylated product) (P450aluC09 [2]; 27° C. (standard condition)) [%] | hydroxylase activity (conversion to hydroxylated product) (P450aluC09 [2]; 37° C.) [%] | % yield of parent-derived products (P450aluC09 [3]; [11]) [%] | % yield of parent-derived products (P450aluC09 [3]; [12]) [%] | % yield of parent-derived products (P450aluC09 [3]; [13]) [%] | % yield of parent-derived products (P450aluC09 [3]; [14]) [%] | % yield of parent-derived products (P450aluC09 [3]; [15]) [%] | % yield of parent-derived products [4] [%] | hydroxylase activity on the substrate at reaction pH (P450aluC09 [2]; pH5 (50 mM Acetate)) | hydroxylase activity on the substrate at reaction pH (P450aluC09 [2]; [16]) | also measured
1 | O=C(O)Cc1ccccc1Nc1c(Cl)cc(O)cc1Cl [4′-HO-Diclofenac, 4′-hydroxydiclofenac] | 7.5 | 8.7 | 27.4 | 60.3 | 46.0 | 7.5 | 14 | 16 | 21 | 13 | 11.5 | 6.0 | 11.3 | >1 | 1.5 | 4.7 |  |  | 
2 | O=C(O)Cc1cc(O)ccc1Nc1c(Cl)cccc1Cl [5-HO-Diclofenac, 5-hydroxydiclofenac] | 35.2 | 23.8 | 60.3 | 23.8 | 12.4 | 35.2 | 17 | 14 | 12 | 1 | 4.2 | 48.1 | 45.1 | 10.3 | 6.5 | <1 |  |  | 
3 | COc1ccccc1Oc1c(NS(=O)(=O)c2ccc(C(C)(C)CO)cc2)nc(-c2ncccn2)nc1OCCO [HO-Bosentan] | 26.6 | 18.2 | 52.6 | 52.6 | 29.5 | 26.6 | 91 | 64 | 86 | 33 | 6.3 | 41.6 | 34.1 | 13.6 | 9.1 | 9.3 |  |  | hydroxylase activity (conversion to hydroxylated product) (P450aluC09 [2]; 45° C.): 19%; % yield of parent-derived products (P450aluC09 [3]; Ferredoxin reductasecamA and ferredoxincamB from P. putida (pHD02-AluC09-PdR-PdX), E. coli BL21 (DE3)): 21.2%; % yield of parent-derived products (P450aluC09 [3]; ferredoxinaluF03 and ferredoxin reductaseSCF15A (pHD02-AluC09-AluF03), E. coli BL21 (DE3)): 27.4%
4 | COc1ccccc1Oc1c(NS(=O)(=O)c2ccc(C(C)(C)C)cc2)nc(-c2ncccn2)nc1OCCO [bosentan, reference compound] |  |  |  |  |  |  |  |  |  |  |  |  |  |  |  |  | only barely detectable | remain | 
5 | O=C(O)Cc1ccccc1Nc1c(Cl)cccc1Cl [diclofenac, reference compound] |  |  |  |  |  |  |  |  |  |  |  |  |  |  |  |  | only barely detectable | remain | 
6 | CC(C)[C@H](NC(=O)N(C)Cc1csc(C(C)(C)O)n1)C(=O)N[C@@H](Cc1ccccc1)C[C@H](O)[C@H](Cc1ccccc1)NC(=O)OCc1cncs1 [ε-HO-Ritonavir, ε-HO—N-methylisopropylthiazoloylmethyl-ritonavir] |  |  |  |  |  |  | 36 | 36 | 34 | 19 |  |  |  |  |  |  |  |  | 
